Source: US20230040125A1, “TARGETING THE INTRINSIC APOPTOTIC MACHINERY IN GLIOBLASTOMA” (The Regents of The University Of California, priority 2019, published 2023)
“Also recorded” adds a separate entry of the source.

System: GBM lines
Assay: TMZ/IR titrated across a panel of GBM lines with a fixed dose of BCLXL inhibitor, cell death
Type: cell-based
Conditions: TMZ/IR titrated with a fixed dose of A1155463
Source text: In the triplet of histogram bars for each dosage, the left bar represents all data (TMZR/IR alone, n=17), the center bar represents p53 WT+BCLXL In. (n=12), and the right bar represents p53 mutants+BCLXL In. (n=5). […] To investigate if BCL-xL is preventing the standard of care from inducing apoptosis, TMZ/IR were titrated in across a panel of genetically diverse GBM lines (n=17) with a fixed dose of BCLXL inhibitor (A1155463).

SMILES: CN(C)CC#Cc1ccc(OCCCc2sc(N3CCc4cccc(C(=O)Nc5nc6ccccc6s5)c4C3)nc2C(=O)O)c(F)c1 [A1155463]
- cell death (p53 mutant GBM, panel n=17 (p53 mutants n=5)): no added benefit
- cell death (p53 wild type GBM, panel n=17 (p53 WT n=12)): significantly increase cell death; also recorded: increases cell death
